The record followed here is US20040147723A1, “Moringa seed proteins” (priority 2001, published 2004).

The subject of test [1] is L. pneumophilia serogroup 10. The test can be described thus: MIC/MBC in 96-well micro plaque, BYEα medium. It counts as cell-based. On the procedure: (§1) Source of bacteria: The bacteria were isolated from drinking water of hospitals in Ticino, patient strains were obtained from the laboratory of microbiology at the CHUV.
(§2) MIC (minimal inhibitory concentration): MIC was measured with the help of a micro plaque with 96 wells, each containing 100 μl. The growth media were BYEα for L. pneumophilia and TSB for Mycobacterium and were containing a certain concentration of the peptide or antibiotic.
(§3) The media were then subjected to twofold dilutions (1 μl of bacterial suspension at a concentration of 5*10^8 CFU/ml diluted to 5*10^6 CFU/ml).
(§4) The L. pneumophilia culture was incubated at 35° C. and the results were read after 48 and 96 hours. The Mycobacterium culture was incubated at 30° C. for up to seven days.
(§5) MIC is the first well […].
(§6) MBC (minimal bactericidal concentration): 50 μl of the above suspensions were plated on solid media BCYEα or agar with blood. The L. pneumophilia culture was incubated at 35° C. for 48 hours and up to seven days for Mycobacterium.
(§7) The MBC value is the first plate without growth.

The subject of test [2] is L. pneumophilia serogroup 1. The test can be described thus: MIC/MBC in 96-well micro plaque, BYEα medium. It counts as cell-based. On the procedure:
as §1, §2, §3, §4, §5, §6, §7

Another test relates to E.coli ER2566. As to conditions: ER2566, 2 h.
The nature of test [3]: Coagulation test (glass bead suspension sedimentation). As to conditions: 20 μg/ml, glass beads. Here is the method:
The test was carried out in a 2 ml volume in a spectrophotometer cell (104QS/HELLMA). To evaluate the coagulation activity, 100 mg/ml suspension of 3.5-7 μm diameter glass beads (Sheriglass 5000, Potters-Ballotini) were diluted in 50 mM phosphate buffer, pH=7.0, to mimic turbid water. Stirring was kept continuously at 800 rpm and OD 500 nm was measured each second (LabVIEW sfotware/National Instruments Corporation) in a Perkin-Elmer 552 spectrophotometer. After 5 minutes of continuous stirring the compound to be tested was added to a final concentration of 20 μg/ml, and stirring was continued for 15 minutes. Active compounds were diluted before the test either in phosphate buffer 10 mM, pH=7.0 (E proteins, PHYTOFLOC and bacterially produced Flo) or in distilled water (synthetic Flo).
To quantify the flocculation efficiency a linear regression was performed on time points corresponding to four minutes before the addition of the flocculating preparation (basal sedimentation) and four minutes after the addition of the flocculating preparation (coagulation-mediated sedimentation). The difference between the coagulation-mediated and basal sedimentation was calculated by subtraction in OD per minutes and multiplied by 1000 (Δ slope).
To assess particle coagulation properties of Flo, a suspension of glass beads under continuous mixing was used to mimic turbid water. […]

≈ marks a conversion by molar mass, not a printed value. Where no end group is shown, it is not given here.

Method for E.coli ER2566: E.coli ER2566 was grown in LB medium to the exponential phase (A600=0.5-0.6) at 37° C. as above. The culture was centrifuged and resuspended in a same volume of 10 mM phosphate buffer pH=7.0, and E proteins, PHYTOFLOC (2 mg/ml), synthetic Flo (0.1 mg/ml to 2 mg/ml) carrier (buffer) or BSA (2 mg/ml) were added. After 2 hours incubation at 37° C., LB was added to the bacteria culture to obtain A600=0.1. All cultures were incubated at 37° C. at 200 rpm and the culture growth was followed through A600 measurements.
An exponential phase E.coli culture was centrifuged and incubated for 2 hrs at 37° C. in phosphate buffer alone (♦), or in phosphate buffer supplemented by the PHYTOFLOC extract (σ) or by synthetic Flo (ν) at a final concentration of 2 mg/ml. Bacteria were then diluted to A600=0.1 in LB growth medium and incubated at 37° C. under agitation. Optical density measurements were then recorded as indicated at 600 nm.
B. Exponentially growing E.coli culture was processed as indicated in (A) except that bacteria were incubated with different concentrations of synthetic Flo in mg/ml: 0 (ν), 0.1 (σ), 0.25 (O), 0.5 (Σ), 1 (λ) or 2 (B). BSA at 2 mg/ml was used as a non specific protein control (♦).

For the compound `O=C(O)c1cn(C2CC2)c2cc(N3CCNCC3)c(F)cc2c1=O` [Ciprofloxacin], the values for the MBC in test [1] (L. pneumophilia serogroup 10) and in test [2] were 16 to 30 µg/mL (≈ 48.3 to 90.5 µM) and 30 to 60 µg/mL (≈ 90.5 to 181 µM), respectively. Besides, the MIC in test [1] (L. pneumophilia serogroup 10, 35° C.) is 16 µg/mL (≈ 48.3 µM); in test [2], 30 µg/mL (≈ 90.5 µM).
Turning to “QGPGRQPDFQRCGQQLRNISPPQRCPSLRQAVQLTHQQQGQVGPQQVRQMYRVASNIPST (cysteines drawn unpaired) [synthetic Flo]”, the “IC50 of antibacterial growth response” value with E.coli ER2566 is “approximately 100 μg/ml”. The “specific coagulation activity compared with PHYTOFLOC” value in test [3] was “higher”.
